In patent US20250129067A1 (Progentos Therapeutics, Inc., priority 2021, published 2025):
Where two headings read alike, the source gives them in different places.

What was measured:
[1] = test system: Oligodendrocyte progenitor cells (OPCs)
PDGFRα = PDGFRα (Homo sapiens (Human), UniProt P16234); assay: PDGFRα kinase enzyme assay (Promega PDGFRα Kinase Enzyme System, ADP-Glo); assay type: biochemical; settings: 150 uM ATP
How it was run: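 Purified PDGFRα protein (20 ng) reacted with test compound per the Promega kinase system protocol. ADP formed was measured by ADP-Glo luminescence against a standard curve, giving IC50.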

[2] = test system: Oligodendrocyte progenitor cells (OPCs); remark: listed apart in the source
Description: (§1) Cortices from postnatal day (P) 1-3 rats were dissected and collected into ice cold Hank's Balanced Salt Solution (HBSS). […] Briefly, the cortical cell suspension was centrifuged and washed with buffer (0.5% BSA in PBS) and labeled with Anti-A2B5 MicroBeads (10 μL beads per 1×10^7 cells) for 15 minutes at 4° C. Following the incubation, cells were washed once with BSA buffer to remove unlabeled beads. A2B^5 positive cells were eluted on the column using the AutoMACS® (Miltenyi, as per manufacturer's protocol using “possel-s” program). Eluted cells were further washed twice with OPC growth media. Cell count was performed using Countess III cell counter (ThermoFisher; AMQAX2000) and cells were plated.
(§2) A2B5+ OPCs were plated in poly-d-lysine (PDL) coated T75 flask at a density of ˜3 million cells per flask. […] TrypLE was normalized by adding 10 mL growth media and cells were centrifuged at 1400 rpm for 10 minutes. […] The plates were allowed to sit at room temperature for 15 minutes to ensure proper dispersion of cells in a well. The plates were then transferred to the incubator (37° C.; 5% CO2).
(§3) Cells were then incubated for 72 hours at 37° C., 5% CO2 before immunostaining for MBP marker expression.
(§4) Following 72 hours of treatment, cells were fixed with 4% paraformaldehyde for 15 minutes then washed three times in DPBS. Prior to staining, cells were blocked for 15 minutes in 10% normal goat serum containing 1% BSA and 0.1% Triton X-100 in DPBS. Primary antibody (MBP @ 1:2000; Abcam AB7349) was applied to cells overnight at 4° C. in incubation solution containing 1% normal goat serum, 1% BSA, and 0.1% Triton X-100 in DPBS.
(§5) The number of differentiated MBP+ cells was normalized to the total nuclei count and percent differentiated MBP+ cells were reported.

MBP (myelin) in brain = assay: Remyelination in chronically demyelinated mice (cuprizone model), MBP staining; assay type: in vivo, C57BL/6 mice; settings: for In vivo MBP Increases: MBP staining at day 10 after the first dose, blinded score
Description: The ability of newly constructed compounds (described in above Examples) to induce remyelination after demyelination in adult mice was tested using a cuprizone model. Cuprizone administration specifically induces the loss of myelin and oligodendrocytes. Mice were maintained on cuprizone chow to induce demyelination, the cuprizone was discontinues, and the compounds were administered. The animals were sacrificed 10 days after compound administration was initiated and their brains sections and stained for MBP, an important component of myelin.
The chow was stored at 4° C. until use.
Mice were allowed ad libitum access to cuprizone chow. […] The cuprizone diet was discontinued 24 hours before compound treatment was initiated.
To assess oligodendrocyte differentiation, the mice were euthanized and assessed at day 3 after the first dose. To assess MBP expression, the animals were euthanized and assessed at day 10 after the first dose.
For some compounds, MBP intensity, an intensity weighted positive pixel count, was measured using an algorithm developed in Visiopharm Software.

[3] = test system: GPR17+ cells (newly differentiated oligodendrocytes); assay: In vivo OPC differentiation, GPR17+ cells in brain
[4] = test system: Oligodendrocyte progenitor cells (OPCs); assay: In vitro OPC differentiation assay, MBP expression (immunocytochemistry); settings: 72 hours of treatment; fold change over vehicle
Description: as §1, §2, §3, §4, §5

[5] = test system: Oligodendrocyte progenitor cells (OPCs); assay: In vitro OPC differentiation assay, GPR17 expression (immunocytochemistry); settings: 72 hours, fold change over vehicle; for GPR17 Fold Induction (Over Vehicle; 3 μM): 3 μM (10× concentration, final 0.3 μM); for GPR17 Fold Induction (Over Vehicle; 5 μM): 5 μM (10× concentration, final 0.5 μM)
In vivo half-life = settings: comparison in words
[6] = test system: newly generated, GPR17+, oligodendrocytes; assay: in vivo GPR17 assay / in vivo OPC differentiation assay (Examples 242, 245); settings: healthy mice, single oral dose of 0.1, 0.33, 1 or 3.3 mg/kg, versus vehicle, n=8 mice per group
Description: FIGS. 2A and 2B provide representative immunohistochemistry images comparing the in vivo generation of new oligodendrocytes in the brains of mice treated with one of the following: (i) vehicle control (FIG. 2A), or (ii) PDGFRα inhibitor (Compound 6) (PO 5 mg/kg; single dose) (FIG. 2B). The newly generated oligodendrocytes are identified based on upregulation of GPR 17 expression.
Healthy mice received a single oral dose of 0.1 (“2”), 0.33 (“3”), 1 (“4”), or 3.3 (“5”) mg/kg of PDGFRα inhibitor (Compound 26). Control mice received a vehicle control (“1”). The number of newly generated, GPR17+, oligodendrocytes/mm^2 was quantitated via automated image analysis from sections spanning the anterio-posterior axis of the brain. […]
As described elsewhere in the present disclosure, some exemplary PDGFRα inhibitors of the present disclosure are capable of have greater therapeutic effect than inhibitors known in the art, e.g., when an inhibitor known in the art and an exemplary inhibitor provided herein are assayed against a vehicle control. […] For example, in some aspects, a PDGFRα inhibitor of the present disclosure can achieve greater than 2-fold increase in GPR17 expression compared to a vehicle control at a dose of less than 50 mg/kg, as measured using an in vivo GPR17 assay (such as that described in Example 242). […]

[7] = test system: GPR17+ cells in brain tissue; assay: Differentiation of newly generated OPCs after a second dose, GPR17+ cells; assay type: in vivo, C57BL/6 mice
Description: Further to the results provided above in Example 244, it was assessed whether OPCs that are newly generated (i.e., through self-renewal) after PDGFRα inhibitor administration have the ability to differentiate into mature oligodendrocytes. As described below, testing this made use of the transient characteristics of GPR17 expression. […] Therefore, the effects of a first and second dose of compound can be distinguished from one another. In these experiments, mice received a first dose of either vehicle or compound, which differentiated the OPCs and reduced the size of the OPC population. Five, fourteen, or twenty-one days later, mice received a second dose of compound and the response to the second dose was measured. These intervals tested whether newly generated OPCs could respond to compound and differentiate into oligodendrocytes. It also tested what the minimum interval was between two doses to get a nearly full response from the second dose.
Mice were treated with a vehicle control and/or Compound 78. The specific treatment groups were as follows: (1) single dose of the vehicle control on day 1; (2) a dose of the vehicle control on day 0 and a dose of compound 78 on day 5; (3) a first dose of compound 78 on day 0 and a second dose of compound 78 on day 5; (4) a first dose of compound 78 on day 0 and a second dose of compound 78 on day 14; and (5) a first dose of compound 78 on day 0 and a second dose of compound 78 on day 21. As described in the above examples, the animals were sacrificed three days after the last dose and their brains were harvested for analysis. GPR17+ expression in the brain tissue was assessed as described herein. Then, the mice were sacrificed 3 days after the second dose and the brains were harvested for analysis.
Histology was performed as described in Example 244 using reagents described in Table xx (below).
Images obtained from the histology preparations were analyzed using a custom protocol implemented with Visiopharm software to count GPR17+ cells.

[8] = test system: NG2+ cells (OPCs) in brain; assay: OPC population recovery after administration of PDGFRα inhibitor, NG2 staining; assay type: in vivo, C57BL/6 mice; settings: mice
Description: OPCs first appear during embryonic organogenesis and continue to exist in adult brain (in both gray and white matter), maintaining their population through self-renewal. To assess whether PDGFRα inhibitors described herein have an effect on the maintenance of the OPC population when administered in vivo, two different PDGFRα inhibitors were tested, each having a different in vivo half-life. Then, the expression of NG2 (marker for OPCs) was assessed in the brains of the treated mice at various time points after treatment as described in more detail below.
The mice received a single administration of either Compound 6 (10 mg/kg) or Compound 78 (5 mg/kg). Control animals received a vehicle control. Then, at days 3, 6, 9, or 12 days after dosing, some of the animals from each of the treatment groups were sacrificed and their brains were harvested for analysis.
The floating sections were incubated with a rabbit anti-NG2 antibody (EMD Millipore, catalog no. AB5320) (i.e., the primary antibody) diluted in blocking solution (to a concentration of 1:1000) overnight at room temperature on a shaker.
NG2 staining was assessed by an observer blinded to the treatment condition and given a score from 1 to 5, with 5 representing the level of OPC population observed in naïve animals that had not received an exemplar PDGFRα inhibitor.

[9] = test system: GPR17+ cells (newly differentiated oligodendrocytes); settings: mouse
[10] = 11-point dose response, 10,000 nM to 0.169 nM, BLQ = below limit of quantitation, read-out: IC50 Values on PDGFRα Kinase Inhibition, IC50
[11] = 20 ng purified PDGFRα, Poly (Glu4Tyr1) substrate, two hours, 11-point dose response, read-out: IC50 Values on PDGFRα Kinase Inhibition
[12] = Mus musculus, po, 24 h, read-out: GPR17 Fold Induction (Over Vehicle)

PDGFRα, sequence (P16234 24-1089): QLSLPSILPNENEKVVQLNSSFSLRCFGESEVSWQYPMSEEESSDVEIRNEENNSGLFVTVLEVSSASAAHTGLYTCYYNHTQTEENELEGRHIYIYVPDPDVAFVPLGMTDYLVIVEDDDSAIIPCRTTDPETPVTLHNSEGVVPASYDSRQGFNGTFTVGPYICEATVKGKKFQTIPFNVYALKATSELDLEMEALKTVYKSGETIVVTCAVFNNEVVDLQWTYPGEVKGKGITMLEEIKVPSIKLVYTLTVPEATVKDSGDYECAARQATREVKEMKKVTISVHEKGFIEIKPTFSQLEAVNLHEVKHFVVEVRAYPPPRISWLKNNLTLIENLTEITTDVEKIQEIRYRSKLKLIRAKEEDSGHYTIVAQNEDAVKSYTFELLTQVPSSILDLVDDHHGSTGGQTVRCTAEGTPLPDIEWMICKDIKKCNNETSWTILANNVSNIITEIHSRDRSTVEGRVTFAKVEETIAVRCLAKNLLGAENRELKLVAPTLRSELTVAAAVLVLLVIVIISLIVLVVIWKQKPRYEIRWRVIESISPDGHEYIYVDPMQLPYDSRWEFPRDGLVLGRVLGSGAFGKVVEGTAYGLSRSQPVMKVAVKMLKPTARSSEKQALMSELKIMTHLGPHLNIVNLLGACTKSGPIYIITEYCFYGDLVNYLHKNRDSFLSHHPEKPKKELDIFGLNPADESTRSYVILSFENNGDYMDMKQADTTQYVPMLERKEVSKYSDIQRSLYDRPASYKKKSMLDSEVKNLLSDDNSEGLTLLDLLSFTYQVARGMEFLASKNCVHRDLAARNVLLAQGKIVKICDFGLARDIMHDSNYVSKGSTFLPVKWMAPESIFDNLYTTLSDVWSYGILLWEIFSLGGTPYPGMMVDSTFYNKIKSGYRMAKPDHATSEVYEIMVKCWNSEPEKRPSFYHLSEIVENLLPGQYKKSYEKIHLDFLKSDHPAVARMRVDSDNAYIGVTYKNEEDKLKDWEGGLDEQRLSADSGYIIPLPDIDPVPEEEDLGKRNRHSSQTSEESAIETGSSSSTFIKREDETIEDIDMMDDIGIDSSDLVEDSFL

3-[4-(5-benzylpyrimidin-2-yl)piperazin-1-yl]-6-(1-methyl-1H-pyrazol-3-yl)pyrazolo[1,5-a]pyridine [Compound 38]
GPR17 Fold Induction (Over Vehicle; 3 μM) [1]: 7.04 | GPR17 Fold Induction (Over Vehicle; 5 μM) [1]: 6.02 | IC50 (PDGFRα; [10]): 4750 nM | MBP Fold Induction (Over vehicle) [2]: 1.41

Cn1cc(-c2cc3c(N4CCN(c5ncc([C@@](C)(N)c6ccc(F)cc6)cn5)CC4)ncnn3c2)cn1 [Avapritinib, avapritinib, reference compound]
In vivo MBP Increases (MBP (myelin) in brain): ++++ (given a score from 1 to 5)

CN1CCC[C@@H]1CCO[C@](C)(c1ccccc1)c1ccc(Cl)cc1 [Clemastine, clemastine, reference compound]
In vivo MBP Increases (MBP (myelin) in brain): + (given a score from 1 to 5) | In vivo GPR17+ cells, GPR17 Fold Induction (Over Vehicle) ([3]; adult female C57BL/6 mice, PO or IP, treatment period 1-3 days, entire brain, fold change over vehicle treated animals): 1.55

Cn1cc(-c2ccc3c(N4CCN(c5ncc(Cc6ccccc6)cn5)CC4)cnn3c2)cn1 [Compound 6, 3-[4-(5-benzylpyrimidin-2-yl)piperazin-1-yl]-6-(1-methyl-1H-pyrazol-4-yl)pyrazolo[1,5-a]pyridine]
MBP Fold Induction (Over vehicle) [4]: 2.95 | GPR17 Fold Induction (Over Vehicle; 3 μM) [5]: 4.47 | GPR17 Fold Induction (Over Vehicle; 5 μM) [5]: 4.07 | Half-life (In vivo half-life): longer half-life | In vivo MBP Increases (MBP (myelin) in brain): +++++ (5 representing the level of myelination observed in naïve, healthy animals that had not undergone demyelination) | MBP expression within the different regions of the brain (MBP (myelin) in brain; single dose, versus vehicle control): significant increase in MBP expression | IC50 (PDGFRα; [11]): < 1000 nM | IC50 (PDGFRα; [10]): 407 nM | fold induction at 150 mg/kg [3, 12]: 18.7

Cn1cc(-c2ccc3c(N4CCN(c5ncc(C(O)c6ccc(F)cc6)cn5)CC4)cnn3c2)cn1 (stereo not shown) [Compound 26, (4-fluorophenyl)(2-{4-[6-(1-methyl-1H-pyrazol-4-yl)pyrazolo[1,5-a]pyridin-3-yl]piperazin-1-yl}pyrimidin-5-yl)methanol]
MBP Fold Induction (Over vehicle) [4]: 5.23 | GPR17 Fold Induction (Over Vehicle; 3 μM) [5]: 13.87 | GPR17 Fold Induction (Over Vehicle; 5 μM) [5]: 4.97 | number of newly generated, GPR17+, oligodendrocytes/mm^2 [6]: dose responsive induction | IC50 Values on PDGFRα Kinase Inhibition, IC50 (nM) (PDGFRα; 11-point dose response, 10,000 nM to 0.169 nM, BLQ = below limit of quantitation): BLQ | fold induction at 3.3 mg/kg [3, 12]: 12.1

C[C@@H](OC(=O)N1CCN(c2cnn3cc(-c4cnn(C)c4)ccc23)CC1)c1ccc(Cl)cc1 [Compound 78, (1R)-1-(4-Chlorophenyl)ethyl 4-[6-(1-methyl-1H-pyrazol-4-yl)pyrazolo[1,5-a]pyridin-3-yl]piperazine-1-carboxylate]
MBP Fold Induction (Over vehicle) [4]: 10.93 | GPR17 Fold Induction (Over Vehicle; 3 μM) [5]: 13.71 | Half-life (In vivo half-life): shorter half-life than Compound 6 | IC50 (PDGFRα; [11]): < 1000 nM | IC50 (PDGFRα; [10]): < 0.17 nM | GPR17+ cells within the brain tissue ([7]; Group 2: vehicle on day 0, first dose of compound on day 5, sacrificed three days after the last dose): significant numbers of GPR17+ cells | GPR17+ cells after second dose ([7]; Group 3: two doses at a dosing interval of 5 days, compared to dosing intervals of 14 days and 21 days): significantly fewer GPR17+ cells | Dosing interval necessary to see any effect on oligodendrocyte generation from the second administration ([7]; mice, two separate doses): greater than 5 days | Time post administration until number of OPCs in the brain was comparable to control animals ([8]; single administration 5 mg/kg): about 9 days | OPC population recovery after 6 days ([8]; single administration, Compound 78 compared to Compound 6): greater recovery | fold induction at 3 mg/kg [3, 12]: 14.9

CN(C)CCC=C1c2ccccc2COc2ccccc21 [Doxepin]
In vivo GPR17+ cells, GPR17 Fold Induction (Over Vehicle) [9]: 1.36
